Source: US4482551A, “Cephalosporin derivatives” (Hoffmann-La Roche Inc., priority 1982, dated 1984)
Where a name gives a salt, the structure may show the parent alone. Read-outs that look alike come from different tables or passages of the source.

Assays:
Escherichia coli = assay: Activity in vitro: Minimum inhibitory concentration; assay type: cell-based; details: read-out: Minimum inhibitory concentration
Source text: (§1) Activity in vitro: Minimum inhibitory concentration

Haemophilus influenzae = assay: as above; assay type: cell-based; details: read-out: Minimum inhibitory concentration
Source text: as §1

Proteus mirabilis = assay: as above; assay type: cell-based; details: read-out: Minimum inhibitory concentration
Source text: as §1

Enterobacter cloacae = assay: as above; assay type: cell-based; details: read-out: Minimum inhibitory concentration
Source text: as §1

Serratia marcescens = assay: as above; assay type: cell-based; details: read-out: Minimum inhibitory concentration
Source text: as §1

[1] = test system: Pseudomonas aeruginosa strain 2; assay: as above; assay type: cell-based
Source text: as §1

Neisseria gonorrhoeae = assay: as above; assay type: cell-based; details: read-out: Minimum inhibitory concentration
Source text: as §1

[2] = test system: Pseudomonas aeruginosa strain 1; assay: as above; assay type: cell-based
Source text: as §1

Proteus vulgaris = assay: as above; assay type: cell-based; details: read-out: Minimum inhibitory concentration
Source text: as §1

Staphylococcus aureus = assay: as above; assay type: cell-based; details: read-out: Minimum inhibitory concentration
Source text: as §1

Toxicity (LD100) = assay type: in vivo
[3] = in vitro, lactamase forming strain

`CO/N=C(\C(=O)N[C@@H]1C(=O)N2C(C(=O)[O-])=C(CSc3nc(=O)cnn3C)CS[C@H]12)c1csc(N)n1.[Na+]` showed an MIC (Escherichia coli) of 0.04 µg/mL, an MIC (Haemophilus influenzae) of 0.02 µg/mL and an MIC (Proteus mirabilis) of 0.04 µg/mL. The MIC (Enterobacter cloacae) was 2.5 µg/mL, the MIC (Serratia marcescens) was 0.16 µg/mL and the MIC ([1]; Pseudomonas aeruginosa, 2, read-out: Minimum inhibitory concentration) was 40 µg/mL. It also gave an MIC (Neisseria gonorrhoeae) of 0.02 µg/mL, an MIC ([2]; Pseudomonas aeruginosa, 1, read-out: Minimum inhibitory concentration) of 40 µg/mL and an MIC (Proteus vulgaris) of 0.02 µg/mL. The MIC (Staphylococcus aureus) was 2.5 µg/mL, the LD100 (Toxicity (LD100); i.v.) was 1000 mg/kg and the LD100 (Toxicity (LD100); p.o.) was > 5000 mg/kg. The LD100 (Toxicity (LD100); s.c.) was > 5000 mg/kg.

In the case of `CO/N=C(\C(=O)N[C@@H]1C(=O)N2C(C(=O)O)=C(CSc3nc(=O)c(C)nn3C)CS[C@H]12)c1csc(N)n1` [Product B, (6R,7R)-7-[2-(2-amino-4-thiazolyl-2-[(Z)-methoxyimino]acetamido]-3-[[(2,5-dihydro-2,6-dimethyl-5-oxo-as-triazin-3-yl)thio]methyl]-8-oxo-5-thia-1-azabicyclo[4.2.0]oct-2-ene-2-carboxylic acid sodium salt], the MIC (Escherichia coli; [3]) is reported as 0.08 µg/mL, the MIC (Haemophilus influenzae; in vitro) is reported as 0.02 µg/mL and the MIC (Proteus mirabilis; [3]) is reported as 0.08 µg/mL. For the same compound, the MIC (Enterobacter cloacae; [3]) was 2.5 µg/mL, the MIC (Serratia marcescens; [3]) was 0.32 µg/mL and the MIC ([1]; in vitro, Pseudomonas aeruginosa strain 2, lactamase forming strain, read-out: Minimum inhibitory concentration) was 80 µg/mL. For the same compound, the MIC (Neisseria gonorrhoeae; in vitro) was 0.02 µg/mL, the MIC ([2]; in vitro, Pseudomonas aeruginosa strain 1, lactamase forming strain, read-out: Minimum inhibitory concentration) was 80 µg/mL and the MIC (Proteus vulgaris; [3]) was 0.02 µg/mL. The MIC (Staphylococcus aureus; in vitro) was 2.5 µg/mL, the LD100 (Toxicity (LD100); i.v.) was 500 mg/kg and the LD100 (Toxicity (LD100); p.o.) was > 5000 mg/kg. The LD100 (Toxicity (LD100); s.c.) was > 4000 mg/kg.
